# In US4939134A, “26-aminocholesterol and derivatives and analogs thereof in the regulation of cholesterol accumulation in body tissue” (New York University, priority 1988, dated 1990):
# Entries after “also recorded” stand apart in the source; their conditions may differ.
# What was measured:
# Format in all cases: cell-based
# [1] = test system: LDLR (+) Human Fibroblasts; assay: Total 125I-LDL binding to human fibroblasts; conditions: for 125I-LDL BINDING: 10 ug/ml 125I-LDL, 4 h, 37° C., n = 3, untreated 49.7; for LDL-binding (in words): human fibroblasts / tissue cells
# Experimental: (§1) Normal LDLR(+) human fibroblasts (GM3440) were obtained from the National Institute of General Medical Sciences Human Genetic Cell Repository. Stock fibroblast monolayers were maintained in T-75 disposable Nunc flasks, in a medium comprising 10 ml of MEM (Eagle's Minimum Essential Medium with Earl's salts, pH 7.4) supplemented with 10% (v/v) fetal bovine serum (FBS), 2% (v/v) non-essential and essential amino acids, 1% (v/v) MEM vitamins, 1% L-glutamine (292 ug/ml), 1% penicillin (100 U/ml)-streptomycin (100 ug/ml). The fibroblast stock was maintained at 37° C. in a humidified atmosphere of 5% CO2 and 95% air.
# (§2) For experiments using fibroblasts, confluent stock cultures (5-18 passages) were washed once with Dulbecco's PBS (phosphate buffered saline) prior to the addition of 3 ml aliquots of experimental MEM containing 25% (v/v) D2 O, 9% (v/v) dilapidated FBS, 1% FBS (v/v), 1% MEM vitamins and L-glutamine, and 2% of essential and non-essential amino acids and 20 mM HEPES buffer.
# (§3) The fibroblast and hepatoblastoma cells were cultured in media containing 25% D2 O and 1% FBS in order to determine de novo cholesterol synthesis under conditions that permit receptor mediated cholesterol transport, according to the method of Easterman & Javitt et al., J. Lipid Res., 26: 950-954 (1985). Dish cultures of each cell type were prepared, and 26-aminocholesterol, dissolved in N,N-dimethylformamide (DMF, 9 ul per dish, 0.3% v/v) was added to each culture. The cells were then grown to confluence (96 hours, day 5). […] Duplicate or triplicate dishes containing 9 ul of DMF, but without 26-aminocholesterol, were used as controls.
# LDL (d, 1.019-1.03) was isolated by sequential preparative ultracentrifugation of normal human plasma, using solid KBr for density adjustment, according to the methods of Havel et al., J. Clin. Invest., 34: 1345-1353 (1955) and Radding & Steinberg, J Clin. Invest., 39: 1560-1569 (1960). The isolated LDL was then iodinated with ^125 INa by the monochloride procedure of McFarlane, Nature, 102: 53 (1958), as modified for lipoproteins according to Bilheimer et al., Biochim. Biophys. Acta. 260: 212-221 (1972). To remove free iodine, the LDL preparation was subjected to column chromatography on a Sephadex G-25M disposable mini-column (Pharmacia PD-10) and was dialized against 0.15 M NaCl and […] EDTA, pH 7.4. The specific activity of all LDL preparations ranged between 160-300 cpm/mg of LDL proteins. ^125 I-LDL was stored at 4° C. and was sterilized by filtration through a 0.45 um membrane just prior to incubation with the treated fibroblast and hepatoblastoma cell cultures and control cultures.
# For binding studies, a fixed concentration of 10 ug/ml of ^125 I-LDL was added directly to the monolayers of the confluent culture medium (at or near the 96th hour) and incubation was continued for a further 4 hours at 37° C. for fibroblasts and 4° C. for HepG2 cells. After this incubation, the culture dishes were placed on ice, the medium was removed, and the cell monolayers were washed as described in Goldstein & Brown, J. Biol. Chem., 249: 5153-5162 (1974). The monolayers were then scraped off the dishes with a teflon policeman and were solubilized with 1 ml of 0.1 N NaOH.
# Cell-associated radioactivity was measured in a Packard auto gamma scintillation spectrometer Model 5160, and cell protein was measured by the method of Lowry et al., J. Biol. Chem., 193: 265-275 (1951), using bovine serum albumin as a standard. Total ^125 I-LDL binding was expressed as the mass of ^125 I-LDL (mg) per mg of cell protein.
# For purposes of comparison, ^125 I-LDL and cholesterol assays were also conducted in cultures prepared according to the above methods, but incubated with 26-hydroxycholesterol in one set of experiments and with the sterol 26-thiacholesterol in another set of experiments. These sterols were obtained according to known methods, similar to those described above for 26-aminocholesterol.
# Human Fibroblasts [2] = assay: Total cell cholesterol and percent esterified cholesterol in human fibroblasts; conditions: 96 h, n = 3
# Experimental: as §1, §2, §3
# (§4) After 96 hours of incubation, medium was removed from the cell cultures, and the cells were washed with Dulbecco's PBS and were harvested with 0.05% trypsin - 0.02% EDTA. The protease was deactivated with an equivolume aliquot of soybean trypsin inhibitor, and the resulting cell suspension was centrifuged for 5 minutes at 500xg. An internal standard of 5B-cholestan-3B-ol was added to the pellets prior to extraction with an 8:4:3 chloroform:methanol:water Folch mixture, as described in Folch et al., J. Biol. Chem., 266: 497-509 (1957). An aliquot of the extract was blown to dryness under nitrogen and silylated with 2:1:1 MSTFA (a sylated reagent supplied by Pierce Co.): toluene:-pyridine. Free cholesterol was determined by gas-liquid chromatography (GLC) on a Perkin-Elmer capillary gas-liquid chromatography model 8320 fitted with a 20 m DE-1 methylsilicon glass column (Supelco). The remaining extract was dried and saponified with 2% ethanolic KOH at 80° C. for one hour. The […] was then re-extracted and total cholesterol was measured by GLC after silylation. Cholesterol ester was calculated as the difference between the total and free cholesterol determinations. Newly synthesized cholesterol was determined by GLC-MS isotope mass ratios, using a Hewlett-Packard GC-MS spectrometer model 5890 fitted with DB-1 methyl silicon 0.18 i.d. 20 m glass column (Supelco), according to the method of J. Lipid. Res., 26: 950-954, supra. […]
# Human Fibroblasts [3] = assay: De novo cholesterol synthesis in human fibroblasts (D2O); conditions: for % DE NOVO (De Novo Cholesterol Synthesis): 96 h, n = 3, untreated 19.0
# Experimental: as §1, §2, §3, §4
smiles,measurement,setting,value
"C[C@@H](CN)CCC[C@@H](C)[C@H]1CC[C@H]2[C@@H]3CC=C4C[C@@H](O)CC[C@]4(C)[C@H]3CC[C@]12C [26-NH2, 26-aminocholesterol]",125I-LDL BINDING,"[1]; 0.156 uM, human fibroblasts",29.6 +/- 1.1 ug LDL protein per mg cell pro
same,125I-LDL BINDING,"[1]; 0.312 uM, human fibroblasts",22.6 +/- 5.4 ug LDL protein per mg cell pro
same,125I-LDL BINDING,"[1]; 0.625 uM, human fibroblasts",13.3 +/- 1.6 ug LDL protein per mg cell pro
same,LDL-binding (in words),[1],significant reductions; also recorded: downregulates LDL binding; also recorded: selectively inhibits and reduces LDL binding
same,potency in comparison (in words),"[1]; human fibroblasts, versus 26-hydroxycholesterol",significantly more potent
same,% ESTER (Percent Esterified Cholesterol),Human Fibroblasts [2]; 0.156 uM,26.4%
same,TOTAL CHOLESTEROL,Human Fibroblasts [2]; 0.156 uM,27.9 +/- 5.3 ug cholesterol per mg cell pro
same,% ESTER (Percent Esterified Cholesterol),Human Fibroblasts [2]; 0.312 uM,18.6%
same,TOTAL CHOLESTEROL,Human Fibroblasts [2]; 0.312 uM,31.5 +/- 6.1 ug cholesterol per mg cell pro
same,% ESTER (Percent Esterified Cholesterol),Human Fibroblasts [2]; 0.625 uM,6.4%
same,TOTAL CHOLESTEROL,Human Fibroblasts [2]; 0.625 uM,20.3 +/- 6.4 ug cholesterol per mg cell pro
same,de novo cholesterol synthesis (in words),Human Fibroblasts [3],significant reductions
same,% DE NOVO (De Novo Cholesterol Synthesis),Human Fibroblasts [3]; 0.156 uM,16.7%
same,% DE NOVO (De Novo Cholesterol Synthesis),Human Fibroblasts [3]; 0.312 uM,10.0%
same,% DE NOVO (De Novo Cholesterol Synthesis),Human Fibroblasts [3]; 0.625 uM,2.7%
"CC(CO)CCC[C@@H](C)[C@H]1CC[C@H]2[C@@H]3CC=C4C[C@@H](O)CC[C@]4(C)[C@H]3CC[C@]12C (some centres unmarked) [26-OH, 26-hydroxycholesterol]",125I-LDL BINDING,"[1]; 0.625 uM, human fibroblasts",22.0 +/- 2.4 ug LDL protein per mg cell pro
same,LDL-binding (in words),[1],significant reductions
same,% ESTER (Percent Esterified Cholesterol),Human Fibroblasts [2]; 0.625 uM,28.7%
same,TOTAL CHOLESTEROL,Human Fibroblasts [2]; 0.625 uM,24.7 +/- 2.8 ug cholesterol per mg cell pro
same,de novo cholesterol synthesis (in words),Human Fibroblasts [3],significant reductions
same,% DE NOVO (De Novo Cholesterol Synthesis),Human Fibroblasts [3]; 0.625 uM,3.9%
CC(CS)CCC[C@@H](C)[C@H]1CC[C@H]2[C@@H]3CC=C4C[C@@H](O)CC[C@]4(C)[C@H]3CC[C@]12C (some centres unmarked) [26-SH],125I-LDL BINDING,"[1]; 5.0 uM, human fibroblasts",37.9 +/- 1.8 ug LDL protein per mg cell pro
same,125I-LDL BINDING,"[1]; 10.0 uM, human fibroblasts",25.7 +/- 0.7 ug LDL protein per mg cell pro
same,125I-LDL BINDING,"[1]; 20.0 uM, human fibroblasts",35.7 +/- 4.8 ug LDL protein per mg cell pro
same,LDL-binding (in words),[1],no impact
same,% ESTER (Percent Esterified Cholesterol),Human Fibroblasts [2]; 5.0 uM,13.6%
same,TOTAL CHOLESTEROL,Human Fibroblasts [2]; 5.0 uM,26.0 +/- 1.7 ug cholesterol per mg cell pro
same,% ESTER (Percent Esterified Cholesterol),Human Fibroblasts [2]; 10.0 uM,31.1%
same,TOTAL CHOLESTEROL,Human Fibroblasts [2]; 10.0 uM,31.3 + /- 4.5 ug cholesterol per mg cell pro
same,% ESTER (Percent Esterified Cholesterol),Human Fibroblasts [2]; 20.0 uM,33.1%
same,TOTAL CHOLESTEROL,Human Fibroblasts [2]; 20.0 uM,26.1 +/- 1.0 ug cholesterol per mg cell pro
same,de novo cholesterol synthesis (in words),Human Fibroblasts [3],no impact
same,% DE NOVO (De Novo Cholesterol Synthesis),Human Fibroblasts [3]; 5.0 uM,27.8%
same,% DE NOVO (De Novo Cholesterol Synthesis),Human Fibroblasts [3]; 10.0 uM,21.9%
same,% DE NOVO (De Novo Cholesterol Synthesis),Human Fibroblasts [3]; 20.0 uM,13.6%
